Experimental data taken from article PMC4937426, “Dcsbis (PA2771) from Pseudomonas aeruginosa is a highly active diguanylate cyclase with unique activity regulation” (Scientific Reports, 2016).

Experiments:
[1] = biological target: WspR (Pseudomonas aeruginosa, UniProt Q9HXT9); assay: coupled spectrophotometric pyrophosphate assay; format: biochemical; settings: turnover only, same molar concentration as Dcsbis
[2] = biological target: T1, Dcsbis-GGDEF; Dcsbis (173-341) (Pseudomonas aeruginosa, UniProt Q9I072); assay: coupled spectrophotometric pyrophosphate assay; format: biochemical; settings: turnover only (residual activity)
T1 construct: gene PA2771

[3] = biological target: T2, Dcsbis (PA2771), full-length (Pseudomonas aeruginosa, UniProt Q9I072); assay: coupled spectrophotometric pyrophosphate assay, Lineweaver-Burk with […] c-di-GMP; format: biochemical; settings: GTP substrate; product inhibition, mainly competitive; Ki not given
T2 construct: homodimer

[4] = biological target: T1, Dcsbis-GGDEF; Dcsbis (173-341); assay: X-ray crystal structure, […] Å; format: binding; settings: I-site; two mutually intercalated c-di-GMP molecules bridging a GGDEF dimer; Arg251, Asp254, Arg271, Arg282
[5] = system: Nc1nc2c(ncn2[C@@H]2O[C@H](COP(=O)(O)OP(=O)(O)OP(=O)(O)O)[C@@H](O)[C@H]2O)c(=O)[nH]1; assay: purified protein; settings: without c-di-GMP; 128-512 μM GTP

T1 sequence (Q9I072 entry or part of it): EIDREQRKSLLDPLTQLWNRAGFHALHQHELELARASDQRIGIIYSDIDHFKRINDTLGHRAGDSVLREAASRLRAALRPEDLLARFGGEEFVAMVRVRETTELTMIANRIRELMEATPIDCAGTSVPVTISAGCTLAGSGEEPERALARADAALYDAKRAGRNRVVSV
T2 sequence (Q9I072 entry or part of it): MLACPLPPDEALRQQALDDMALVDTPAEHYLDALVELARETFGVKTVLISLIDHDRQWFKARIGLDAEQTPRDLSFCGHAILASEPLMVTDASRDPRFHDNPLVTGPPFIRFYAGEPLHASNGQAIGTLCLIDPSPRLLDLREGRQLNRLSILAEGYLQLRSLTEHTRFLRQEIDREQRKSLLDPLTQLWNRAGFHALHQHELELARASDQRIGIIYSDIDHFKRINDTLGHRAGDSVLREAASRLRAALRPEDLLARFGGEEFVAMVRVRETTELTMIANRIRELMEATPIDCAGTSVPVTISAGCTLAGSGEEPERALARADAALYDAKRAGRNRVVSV
Chain of WspR (Q9HXT9 entry or part of it): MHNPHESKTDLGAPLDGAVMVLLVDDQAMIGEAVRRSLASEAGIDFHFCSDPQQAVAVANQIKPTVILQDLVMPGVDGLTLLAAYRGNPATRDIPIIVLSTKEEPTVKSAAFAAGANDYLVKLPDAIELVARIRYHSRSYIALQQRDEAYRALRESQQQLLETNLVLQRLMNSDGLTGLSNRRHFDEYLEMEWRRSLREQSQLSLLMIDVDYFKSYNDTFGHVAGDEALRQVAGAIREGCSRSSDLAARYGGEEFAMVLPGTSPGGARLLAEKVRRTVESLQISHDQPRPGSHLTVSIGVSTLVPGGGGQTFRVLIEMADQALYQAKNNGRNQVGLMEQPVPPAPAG

Compound: Nc1nc2c(ncn2[C@@H]2O[C@H](COP(=O)(O)OP(=O)(O)OP(=O)(O)O)[C@@H](O)[C@H]2O)c(=O)[nH]1 [GTP]
- coupled spectrophotometric pyrophosphate assay [1]: DGC activity assays were performed for the three proteins at the same molar concentration
- coupled spectrophotometric pyrophosphate assay [2]: the GGDEF domain of Dcsbis, compared with the full-length Dcsbis, exhibited only residual DGC activity

Compound: Nc1nc2c(ncn2[C@@H]2O[C@@H]3COP(=O)(O)O[C@H]4[C@@H](O)[C@H](n5cnc6c(=O)[nH]c(N)nc65)O[C@@H]4COP(=O)(O)O[C@H]3[C@H]2O)c(=O)[nH]1 [c-di-GMP]
- coupled spectrophotometric pyrophosphate assay, Lineweaver-Burk with 50 μM c-di- [3]: The greatly increased Km suggests that c-di-GMP mainly binds to the active site
- X-ray crystal structure, 2.5 Å [4]: This extra density may be explained by building in two mutually intercalated c-di-GMP molecules

Compound: Dcsbis (PA2771), full-length (Pseudomonas aeruginosa PAO1)
- Km [5]: 88 µM
